ChEMBL document CHEMBL1121381, “Beta-adrenergic blocking agents. 19. 1-Phenyl-2-[[(substituted-amido)alkyl]amino]ethanols” (1980)

Experiments:
Felis catus = species on record: Felis catus; assay: Percentage inhibition of depressor response in cat was determined; assay type: functional; design: concentration or dose not given beside the values
[1] = biological target: Adrenergic receptor beta (Rattus norvegicus) (UniProt P18090+P10608+P26255); assay: In vivo beta-adrenoceptor blocking potency measured by blockade of the isoproterenol tachycardia response in rat; assay type: functional, organism-based

| Compound | ED50 [1] [mg/kg] | Inhibition (Felis catus) [%] |
| --- | --- | --- |
| O=S(=O)(Cc1ccccc1)NCCNCC(O)c1ccccc1 (stereo unspecified) | 2 | 0 |
| CC(C)C(=O)NCCNCC(O)c1ccc(Br)cc1 (stereo unspecified) | 1.6 | – |
| CC(=O)c1ccc(OCC(=O)NCCNCC(O)c2ccccc2)cc1 (stereo unspecified) | 0.6 | – |
| CCC(C)NCC(O)c1ccc2c(c1)CCCC2.Cl (stereo unspecified) | – | 47 |
| CC(CNC(=O)Cc1ccccc1Cl)NCC(O)c1ccccc1 (stereo unspecified) | 0.03 | 19 |
| COc1ccc(C(O)CNCCNC(=O)C(C)C)cc1 (stereo unspecified) | 0.3 | 0 |
| CC(C)C(=O)NCC(C)(C)NCC(O)c1ccccc1 (stereo unspecified) | 0.27 | 9 |
| O=C(COc1ccccc1)NCCNCC(O)c1ccccc1 (stereo unspecified) | 1 | – |
| O=S(=O)(NCCNCC(O)c1ccccc1)c1ccccc1 (stereo unspecified) | 1 | 27 |
| CC(CNC(=O)C1CCCCC1)NCC(O)c1ccccc1 (stereo unspecified) | 0.11 | 19 |
| C=CCOc1ccccc1OCC(=O)NCCNCC(O)c1ccccc1 (stereo unspecified) | 5.8 | – |
| NC(=O)c1ccccc1OCC(=O)NCCNCC(O)c1ccccc1 (stereo unspecified) | 5.2 | – |
| CC(C)C(=O)NCCNCC(O)c1ccc(N)cc1 (stereo unspecified) | 0.6 | 69 |
| O=C(Cc1ccccc1)NCCNCC(O)c1ccccc1Cl.O=C(O)/C=C/C(=O)O (stereo unspecified) | 0.6 | 45 |
| N#Cc1ccc(OCC(=O)NCCNCC(O)c2ccccc2)cc1 (stereo unspecified) | 0.7 | – |
| CC(C)C(=O)NCCNCC(O)c1ccc(NS(C)(=O)=O)cc1 (stereo unspecified) | 5.2 | – |
| CC(=O)Nc1ccc(OCC(O)CNC(C)C)cc1 (stereo unspecified) [PRACTOLOL] | – | 8 |
| COc1ccc(CC(=O)NCCNCC(O)c2ccccc2)cc1 (stereo unspecified) | 0.32 | 24 |
| CC(C)C(=O)NCCNCC(O)c1ccc([N+](=O)[O-])cc1 (stereo unspecified) | 10 | 0 |
| CC(CNCC(O)c1ccccc1)NC(=O)Cc1ccccc1 (stereo unspecified) | 8 | – |
| O=C(COc1ccc(Cl)cc1)NCCNCC(O)c1ccccc1 (stereo unspecified) | 2.5 | 36 |
| COc1ccc(CC(=O)NCCNCC(O)c2ccccc2)cc1OC (stereo unspecified) | 7 | – |
| CC(O)c1ccc(OCC(=O)NCCNCC(O)c2ccccc2)cc1 (stereo unspecified) | 1.6 | – |
| CC(C)(CNC(=O)Cc1ccccc1)NCC(O)c1ccccc1.O=C(O)/C=C/C(=O)O (stereo unspecified) | 0.1 | 28 |
| O=[N+]([O-])c1ccccc1S(=O)(=O)NCCNCC(O)c1ccccc1 (stereo unspecified) | 2.5 | 23 |
| CCC(=O)NCCNCC(O)c1ccc(C)cc1 (stereo unspecified) | 0.5 | – |
| CC(CNC(=O)Cc1ccccc1)NCC(O)c1ccccc1 (stereo unspecified) | 0.1 | 36 |
| CC(C)NCC(O)c1ccc(NS(C)(=O)=O)cc1 (stereo unspecified) [SOTALOL] | – | 85 |
| CC(C)C(=O)NCCNCC(O)c1ccc(Cl)cc1Cl (stereo unspecified) | 0.75 | – |

Second part, led by results:

| ED50 [1] [mg/kg] | Compound | Inhibition (Felis catus) [%] |
| --- | --- | --- |
| 0.38 | O=C(Cc1ccccc1)NCCNCC(O)c1ccccc1 (stereo unspecified) | 6 |
| 0.4 | COCC(=O)NCCNCC(O)c1ccccc1 (stereo unspecified) | 44 |
| 1.4 | CCCCCC(=O)NCCNCC(O)c1ccccc1 (stereo unspecified) | 8 |
| 2.9 | O=C(NCCNCC(O)c1ccccc1)Nc1ccccc1 (stereo unspecified) | 0 |
| 0.16 | Cl.O=C(NCCNCC(O)c1ccccc1)C1CCCCC1 (stereo unspecified) | 0 |
| 0.42 | O=C(NCCNCC(O)c1ccccc1)C1CCCC1 (stereo unspecified) | 8 |
| 0.1 | O=C(NCCNCC(O)c1ccccc1)C(F)(F)F (stereo unspecified) | – |
| 0.26 | C=CCNC(=O)NCCNCC(O)c1ccccc1 (stereo unspecified) | 0 |
| 0.45 | CCCC(=O)NCCNCC(O)c1ccccc1 (stereo unspecified) | 0 |
| 0.7 | CC(C)C(=O)NCCNCC(O)c1ccccc1 (stereo unspecified) | 27 |
| 0.5 | CCCCNC(=O)NCCNCC(O)c1ccccc1 (stereo unspecified) | 54 |
| 10 | O=C(NCCNCC(O)c1ccccc1)c1ccccc1 (stereo unspecified) | – |
| 0.07 | CCC(=O)NCCNCC(O)c1ccccc1 (stereo unspecified) | 46 |
| 0.72 | CC(C)CC(=O)NCCNCC(O)c1ccccc1 (stereo unspecified) | 25 |
| 0.7 | O=C(Cc1ccc(Cl)cc1)NCCNCC(O)c1ccccc1 (stereo unspecified) | 3 |
| 0.08 | CC(=O)NCCNCC(O)c1ccccc1 (stereo unspecified) | 50 |
| 0.5 | CCCS(=O)(=O)NCCNCC(O)c1ccccc1 (stereo unspecified) | 0 |
| 2.5 | Nc1ccc(CC(=O)NCCNCC(O)c2ccccc2)cc1 (stereo unspecified) | – |
| 0.3 | O=C(CO)NCCNCC(O)c1ccccc1 (stereo unspecified) | – |
| 9 | O=C(NCCNCC(O)c1ccccc1)c1ccc(O)cc1 (stereo unspecified) | 10 |
| 2.8 | CCOC(=O)NCCNCC(O)c1ccccc1 (stereo unspecified) | – |
| 1.2 | CC(=O)Nc1ccc(CC(=O)NCCNCC(O)c2ccccc2)cc1 (stereo unspecified) | – |
